# Measurements: US8709406B2, “Prevention and treatment of oxidative stress disorders by gluthathione and phase II detoxification enzymes” (Brassica Foundation for ChemoProtection Research, priority 2001, dated 2014)
# Read-outs that look alike come from different tables or passages of the source.
# What was measured:
# [1] = tested on: ARPE-19 cells; experiment: Oxidant cytotoxicity (MTT viability, median effect analysis) and protection by 24 h sulforaphane pretreatment; format: cell-based, human; conditions: ARPE-19; for Dm of menadione: Example 3; for Dm of menadione / Dm (median effect concentration) of menadione / m (slope of median effect plot) for menadione: menadione 2 h; for Dm (median effect concentration) of tert-butyl hydroperoxide / m (slope of median effect plot) for tert-butyl hydroperoxide: tert-butyl hydroperoxide 16 h
# Experimental: All experiments were performed in 96-well microliter plates. ARPE-19 and HaCaT cells were seeded at 10,000 cells per well and grown for 24 h before addition of sulforaphane, whereas L1210 cells (5,000 cells/well) were not incubated before sulforaphane treatment. Solutions of sulforaphane (5 mM) in dimethyl sulfoxide were diluted with the cognate culture medium to provide final inducer concentrations of 0.16-5.0 μM. The final DMSO concentrations were 0.1% by volume.
# Tert-Butyl hydroperoxide (1 M) and 4-hydroxynonenal (25 mM) were dissolved in DMSO and diluted 1000-fold with serum-free medium before addition of serial dilutions to the microtiter plate wells. The final concentrations of DMSO were therefore less than 0.1% (by vol.). Menadione sodium bisulfite (0.5 M) and SIN-1 (0.5 M) were dissolved and added in PBS. ARPE-19 cells were exposed to menadione for 2 h and to tert-butyl hydroperoxide for 16 h, washed with PBS, and cell viability was determined by the MIT test. ARPE-19 cells were exposed to peroxynitrite for 2 h and 4-hydroxynonenal for 4 h, and the cells were then incubated in serum-free media for 22 and 20 h, respectively, washed with PBS, and cell viability was determined. The additional incubation periods were required for peroxynitrite and 4-hydroxynonenal to evoke maximal cytotoxicity.
# (§1) Cell viability was determined by spectroscopic measurement of the reduction of MTT (Carmichael, J., DeGraff, W. G., Gazdar, A. F., Minna, J. D. & Mitchell, J. B. (1987) Cancer Res. 47, 936-942). The culture media were discarded after the designated incubation periods, the cells were washed three times with PBS by use of a microtiter plate washer (Ultrawash Plus, Dynex Technologies, Chantilly, Va.). Each well then received 150 μl of an MTT solution (0.5 mg/ml) in serum-free medium. The plates were incubated for 2 h at 37° C., the MTT solution was discarded, 100 μl of DMSO were added to each well, and the plates were shaken at 200 rpm on an orbital shaker for 5 min. The absorbances of the wells were determined at 555 nm with a microtiter plate reader (Spectra Max Plus, Molecular Devices, Sunnyvale, Calif.). The absorbance of reduced MIT was then compared at each inducer and oxidant concentration to that of untreated control cells that received only the vehicle in which sulforaphane (DMSO) and menadione (DMSO or PBS) were dissolved. In each experiment three identical 96-well plates were used and the means of the absorbance values, the standard deviations of these means, and their coefficients of variation were calculated.
# Dose-effect analyses were performed according to the Median Effect Equation, by use of a computer program (Chou, T. C. & Hayball, M. (1996) CalcuSyn for Windows 3.1 and 95: multiple dose effect analyzer and manual for IBM-PC, Biosoft, Cambridge, U.K). The equation: fa/fu=[D/Dm]^m, where fa is the fraction of cells affected by the oxidant, fu is the fraction unaffected (i.e., 1-fa), D is the dose of oxidant required to produce the effect fa, Dm is the concentration of oxidant required to produce a 50% effect, i.e., when fa=fu, and the slope m is a measure of the sigmoidicity of the dose-response curve, and is therefore a measure of cooperativity. The results are analyzed by plotting log(fa/fu) with respect to log D of the oxidant. The computer program provides the slope (m) of the curves, and the goodness of fit (r^2) to linearity.
# [2] = tested on: Retina Pigment Epithelium Cell; experiment: Photooxidative damage by all-trans-retinal and 365 nm light, protection by sulforaphane (cell survival); format: cell-based, human
# Experimental: There is accumulating evidence that chronic exposure to sunlight plays a role in some degenerative diseases, for instance, age-related macular degeneration (AMD). We have, therefore, carried out an experiment of protection of human RPE cells against photooxidative damage mediated by all-trans-retinal, which exists in human retina and is a critical component of the visual cycle.
# as §1
# To examine the protective effect of sulforaphane against photooxidative damage mediated by all-trans-retinal and light exposure, the cells were treated with 0-100 μM of all-trans-retinal for 2 hours and light exposure at 365 nm for 20 min after incubation with 0-5 μM of sulforaphane for 24 hours.
# [3] = after sulforaphane 0.63 μM 24 h
# [4] = after sulforaphane 1.25 μM 24 h
# [5] = after sulforaphane 2.50 μM 24 h
# [6] = after sulforaphane 5.00 μM 24 h
compound,measurement,setting,value
C[S+]([O-])CCCCN=C=S (stereo not drawn) [Sulforaphane],m (slope of median effect plot) for 4-hydroxynonenal,"[1]; 4-hydroxynonenal 4 h, after sulforaphane 0.63 μM 24 h",2.51
same,EC50,"[1]; 4-hydroxynonenal 4 h, after sulforaphane 0.63 μM 24 h, read-out: Dm (median effect concentration) of 4-hydroxynonenal",14.1 µM
same,m (slope of median effect plot) for 4-hydroxynonenal,"[1]; 4-hydroxynonenal 4 h, after sulforaphane 1.25 μM 24 h",2.78
same,EC50,"[1]; 4-hydroxynonenal 4 h, after sulforaphane 1.25 μM 24 h, read-out: Dm (median effect concentration) of 4-hydroxynonenal",25.8 µM
same,m (slope of median effect plot) for 4-hydroxynonenal,"[1]; 4-hydroxynonenal 4 h, after sulforaphane 2.50 μM 24 h",2.51
same,EC50,"[1]; 4-hydroxynonenal 4 h, after sulforaphane 2.50 μM 24 h, read-out: Dm (median effect concentration) of 4-hydroxynonenal",26.8 µM
same,Dm of menadione,[1]; after sulforaphane 0.625 μM 24 h,69.2 µM
same,Dm of menadione,[1]; after sulforaphane 2.5 μM 24 h,94.5 µM
same,degree of protection against different oxidants,[1]; comparable concentrations of sulforaphane,2- to 3 fold
same,Dm (median effect concentration) of menadione,[1]; [3],98.6 µM
same,m (slope of median effect plot) for menadione,[1]; [3],3.69
same,Dm (median effect concentration) of menadione,[1]; [4],110 µM
same,m (slope of median effect plot) for menadione,[1]; [4],3.49
same,Dm (median effect concentration) of menadione,"[1]; after sulforaphane 1.25 μM 24 h, listed as sulforaphane",109.9 µM
same,Dm (median effect concentration) of menadione,[1]; [5],123 µM
same,m (slope of median effect plot) for menadione,[1]; [5],3.58
same,Dm (median effect concentration) of menadione,"[1]; after sulforaphane 2.50 μM 24 h, listed as sulforaphane",122.9 µM
same,Dm (median effect concentration) of menadione,[1]; [6],134 µM
same,m (slope of median effect plot) for menadione,[1]; [6],3.12
same,Dm (median effect concentration) of menadione,"[1]; after sulforaphane 5.00 μM 24 h, listed as sulforaphane",134.2 µM
same,m (slope of median effect plot) for peroxynitrite,"[1]; peroxynitrite (from SIN-1) 2 h, after sulforaphane 0.63 μM 24 h",6.30
same,EC50,"[1]; peroxynitrite (from SIN-1) 2 h, after sulforaphane 0.63 μM 24 h, read-out: Dm (median effect concentration) of peroxynitrite",2780 µM
same,m (slope of median effect plot) for peroxynitrite,"[1]; peroxynitrite (from SIN-1) 2 h, after sulforaphane 1.25 μM 24 h",6.19
same,EC50,"[1]; peroxynitrite (from SIN-1) 2 h, after sulforaphane 1.25 μM 24 h, read-out: Dm (median effect concentration) of peroxynitrite",2820 µM
same,m (slope of median effect plot) for peroxynitrite,"[1]; peroxynitrite (from SIN-1) 2 h, after sulforaphane 2.50 μM 24 h",6.62
same,EC50,"[1]; peroxynitrite (from SIN-1) 2 h, after sulforaphane 2.50 μM 24 h, read-out: Dm (median effect concentration) of peroxynitrite",2890 µM
same,time for which protection against menadione toxicity is maintained or exceeded after 24-h induction,"[1]; sulforaphane 0.625 and 2.5 μM 24 h, then serum-free culture",at least 3 days
same,Dm (median effect concentration) of tert-butyl hydroperoxide,[1]; [3],140 µM
same,m (slope of median effect plot) for tert-butyl hydroperoxide,[1]; [3],2.17
same,Dm (median effect concentration) of tert-butyl hydroperoxide,[1]; [4],163 µM
same,m (slope of median effect plot) for tert-butyl hydroperoxide,[1]; [4],1.79
same,Dm (median effect concentration) of tert-butyl hydroperoxide,[1]; [5],165 µM
same,m (slope of median effect plot) for tert-butyl hydroperoxide,[1]; [5],1.26
same,Survival,"[2]; 365 nm light, all-trans-retinal 0 μM, sulforaphane 1.25 μM 24 h",100.0%
same,Survival,"[2]; 365 nm light, all-trans-retinal 0 μM, sulforaphane 2.50 μM 24 h",100.6%
same,Survival,"[2]; 365 nm light, all-trans-retinal 0 μM, sulforaphane 5.00 μM 24 h",100.4%
same,Survival,"[2]; 365 nm light, all-trans-retinal 12.5 μM, sulforaphane 1.25 μM 24 h",95.4%
same,Survival,"[2]; 365 nm light, all-trans-retinal 12.5 μM, sulforaphane 2.50 μM 24 h",96.5%
same,Survival,"[2]; 365 nm light, all-trans-retinal 12.5 μM, sulforaphane 5.00 μM 24 h",103.4%
same,Survival,"[2]; 365 nm light, all-trans-retinal 25 μM, sulforaphane 1.25 μM 24 h",54.4%
same,Survival,"[2]; 365 nm light, all-trans-retinal 25 μM, sulforaphane 2.50 μM 24 h",63.8%
same,Survival,"[2]; 365 nm light, all-trans-retinal 25 μM, sulforaphane 5.00 μM 24 h",72.2%
same,Survival,"[2]; 365 nm light, all-trans-retinal 50 μM, sulforaphane 1.25 μM 24 h",11.7%
same,Survival,"[2]; 365 nm light, all-trans-retinal 50 μM, sulforaphane 2.50 μM 24 h",15.2%
same,Survival,"[2]; 365 nm light, all-trans-retinal 50 μM, sulforaphane 5.00 μM 24 h",27.4%
same,Survival,"[2]; 365 nm light, all-trans-retinal 100 μM, sulforaphane 1.25 μM 24 h",3.4%
same,Survival,"[2]; 365 nm light, all-trans-retinal 100 μM, sulforaphane 2.50 μM 24 h",5.2%
same,Survival,"[2]; 365 nm light, all-trans-retinal 100 μM, sulforaphane 5.00 μM 24 h",8.2%
same,Survival,"[2]; 365 nm light, column Control, sulforaphane 1.25 μM 24 h",100.7%
same,Survival,"[2]; 365 nm light, column Control, sulforaphane 2.50 μM 24 h",97.4%
same,Survival,"[2]; 365 nm light, column Control, sulforaphane 5.00 μM 24 h",101.4%
same,Survival,"[2]; in dark, all-trans-retinal 0 μM, sulforaphane 1.25 μM 24 h",96.6%
same,Survival,"[2]; in dark, all-trans-retinal 0 μM, sulforaphane 2.50 μM 24 h",99.4%
same,Survival,"[2]; in dark, all-trans-retinal 0 μM, sulforaphane 5.00 μM 24 h",103.1%
same,Survival,"[2]; in dark, all-trans-retinal 12.5 μM, sulforaphane 1.25 μM 24 h",96.3%
same,Survival,"[2]; in dark, all-trans-retinal 12.5 μM, sulforaphane 2.50 μM 24 h",101.5%
same,Survival,"[2]; in dark, all-trans-retinal 12.5 μM, sulforaphane 5.00 μM 24 h",104.6%
same,Survival,"[2]; in dark, all-trans-retinal 25 μM, sulforaphane 1.25 μM 24 h",97.7%
same,Survival,"[2]; in dark, all-trans-retinal 25 μM, sulforaphane 2.50 μM 24 h",98.3%
same,Survival,"[2]; in dark, all-trans-retinal 25 μM, sulforaphane 5.00 μM 24 h",104.8%
same,Survival,"[2]; in dark, all-trans-retinal 50 μM, sulforaphane 1.25 μM 24 h",98.4%
same,Survival,"[2]; in dark, all-trans-retinal 50 μM, sulforaphane 2.50 μM 24 h",99.9%
same,Survival,"[2]; in dark, all-trans-retinal 50 μM, sulforaphane 5.00 μM 24 h",106.8%
same,Survival,"[2]; in dark, all-trans-retinal 100 μM, sulforaphane 1.25 μM 24 h",74.7%
same,Survival,"[2]; in dark, all-trans-retinal 100 μM, sulforaphane 2.50 μM 24 h",75.6%
same,Survival,"[2]; in dark, all-trans-retinal 100 μM, sulforaphane 5.00 μM 24 h",84.6%
same,Survival,"[2]; in dark, column Control, sulforaphane 1.25 μM 24 h",96.7%
same,Survival,"[2]; in dark, column Control, sulforaphane 2.50 μM 24 h",99.5%
same,Survival,"[2]; in dark, column Control, sulforaphane 5.00 μM 24 h",105.6%
